This assay relates to Rattus norvegicus. Kind of assay: Antihypertensive activity in deoxy-corticosterone acetate-induced Sprague-Dawley rat assessed as reduction of blood pressure at 4.8 mg/kg, iv. The class given is functional.

Structures are written as SMILES.

On to `C[C@@]12CC[C@]3(O)[C@@](CC[C@@H]4[C@](C)(C(=O)O)CCC[C@]43C)(CC1=O)C2`, for which the Activity turned out to be 7 mmHg.
The figure for `C[C@@]12CC[C@@H]3[C@@](CC[C@H]4[C@@]3(C)CCC[C@@]4(C)C(=O)O)(CC1=O)C2` [ISOSTEVIOL] is 12 mmHg.

For the origin of these results see ChEMBL document CHEMBL1159329, “Microbial transformations of isosteviol” (2002).
